{"source": "patent US20250082624A1", "about": "“METHODS OF TREATING COGNITIVE IMPAIRMENT” (NeuroTherapia, Inc., priority 2023, published 2025)", "test": "Phase 1b MAD plasma pharmacokinetics, non-compartmental analysis", "format": "in vivo, human", "source_text": "Methods: All study procedures were approved by the IRB, and informed consent was obtained. Three cohorts of volunteers 45-80 years of age with well-controlled comorbidities (NOAD) and one cohort of AD patients diagnosed with cognitive impairment consistent with prodromal AD per International Working Group criteria or mild AD per National Institute on Aging—Alzheimer's Association criteria (n=6 active, 2 placebo per cohort) were enrolled. Participants were admitted to the study site for the duration of the dosing and returned 7-12 days after the last dose for a safety visit. Participants received NTRX-07 (10, 30, or 90 mg) or a placebo in a double-blinded randomization orally once daily for seven days. Subjects were assessed for changes in vital signs, including maneuvers to induce lightheadedness, electrocardiograms, 24-hour electroencephalograms (EEG), and safety laboratory studies. The second cohort returned and received a single repeat dose after a standard high-fat meal. The AD cohort also underwent cognitive testing and had blood samples for biomarkers drawn. Subjects had PK sampling done after the first and final dose of the study drug. An independent safety review committee conducted a blinded safety review of adverse events and plasma levels between each cohort.\nAll subjects had PK sampling done after the first and final dose of the study drug.\n(§1) Raw bioanalytical data were received from Nuvisan following analysis of plasma samples from each of four cohorts. PK parameters were calculated by noncompartmental analysis using standard equations. Specifically, area under the plasma concentration versus time curve (AUC) was calculated using the trapezoid rule. Maximal plasma concentration (Cmax) and time of maximal plasma concentration (Tmax) were taken directly from the data. Clearance divided by bioavailability (Cl/F) was calculated as the dose divided by the AUC. Apparent volume of distribution over bioavailability (Vd/F) was calculated as dose divided by Cmax.\nWith oral administration of the dose every 24 hours for 7 days, blood samples were taken over a 24-hour interval on Days 1 and 7 and before and after dosing on Day 3.\nas §1, with “on Oct. 27, 2022. […]” for “following analysis of plasma samples from each of four cohorts. PK parameters were calculated by noncompartmental analysis using standard equations.”\nas §1, with “on Nov. 24, 2022. […]” for “following analysis of plasma samples from each of four cohorts. PK parameters were calculated by noncompartmental analysis using standard equations.”\nas §1, with “on Dec. 19, 2022. […]” for “following analysis of plasma samples from each of four cohorts. PK parameters were calculated by noncompartmental analysis using standard equations.”\nRaw bioanalytical data were received from Nuvisan on Jun. 30, 2023. […] Specifically, area under the plasma concentration versus time curve (AUC) was calculated using the trapezoid rule. Maximal plasma concentration (Cmax) and time of maximal plasma concentration (Tmax) were taken directly from the data. […]", "key": {"[1]": {"conditions": "Table 9: Cohort A, 10 mg QD oral, Day 1, individual subjects"}, "[2]": {"conditions": "Table 10: Cohort A, 10 mg QD oral, Day 7, individual subjects"}, "[3]": {"conditions": "Table 11: Cohort B, 30 mg QD oral, Day 1, individual subjects"}, "[4]": {"conditions": "Table 12: Cohort B, 30 mg QD oral, Day 7, individual subjects"}, "[5]": {"conditions": "Table 13: Cohort B Fed, 30 mg oral, fed state, individual subjects"}, "[6]": {"conditions": "Table 14: Cohort C, 90 mg QD oral, Day 1, individual subjects"}, "[7]": {"conditions": "Table 15: Cohort C, 90 mg QD oral, Day 7, individual subjects"}, "[8]": {"conditions": "Table 16: Cohort D (AD), 90 mg QD oral, Day 1, individual subjects"}, "[9]": {"conditions": "Table 17: Cohort D (AD), 90 mg QD oral, Day 7, individual subjects"}}, "note": "Where “and” joins values, the source holds several entries; their conditions need not be identical. Identical values can stand only once. Entries after “also recorded” stand apart in the source; their conditions may differ.", "data": [{"smiles": "CC1(Cc2ccccc2)COc2cc(C(=O)N3CCCCC3)ccc21", "note": "(centres unmarked) [NTRX-07, 3-benzyl-3-methyl-2,3-dihydrobenzofuran-6-carboxylic acid-piperidine amide]", "values": [{"measurement": "Food effect on Cmax", "setting": "30 mg after standard high-fat meal vs fasted", "result": "decreased Cmax; also recorded: muting of Cmax"}, {"measurement": "Plasma levels vs target / predicted efficacious levels", "setting": "90 mg dose, allometric scaling of preclinical data", "result": "within the target ranges; also recorded: Blood levels equivalent to those that were efficacious in animal models of AD; also recorded: consistent with levels predicted to be efficacious"}, {"measurement": "Dose linearity of PK", "setting": "10-90 mg QD", "result": "PK is linear across this dose range"}, {"measurement": "Dose linearity of PK (interim analyses)", "setting": "40, 120 and 360 mg SDD QD doses", "result": "Good dose linearity; also recorded: linear; also recorded: Dose linearity was observed"}, {"measurement": "Accumulation over seven days of dosing", "setting": "Cohort A, 40 mg SDD QD", "result": "little or no accumulation"}, {"measurement": "Accumulation over seven days of dosing", "setting": "Cohort B, 120 mg SDD QD", "result": "little or no accumulation"}, {"measurement": "Accumulation over seven days of dosing", "setting": "Cohort C, 360 mg SDD QD", "result": "little or no accumulation"}, {"measurement": "Average of Cl/F", "setting": "Cohort D AD patients, 90 mg QD oral, Day 1, mean ± SD", "result": "62 ± 19", "unit": "L/h"}, {"measurement": "AUClast", "setting": "[1]", "result": "31.6 ng·h/mL and 66.2 ng·h/mL and 131.4 ng·h/mL and 33.4 ng·h/mL and 126.9 ng·h/mL and 83.1 ng·h/mL"}, {"measurement": "Cl/F", "setting": "[1]", "result": "316.3 L/h and 151.1 L/h and 76.1 L/h and 299.0 L/h and 78.8 L/h and 120.4 L/h"}, {"measurement": "Cmax", "setting": "[1]", "result": "24.2 ng/mL and 45.0 ng/mL and 36.7 ng/mL and 18.2 ng/mL and 52.6 ng/mL and 37.0 ng/mL"}, {"measurement": "Tmax", "setting": "[1]", "result": 1.0, "unit": "h"}, {"measurement": "Cl/F", "setting": "Table 9: Cohort A, 10 mg QD oral, Day 1, mean ± S.D.", "result": "174 ± 108", "unit": "L/h"}, {"measurement": "AUC24 h", "setting": "[2]", "result": "47.8 ng·h/mL and 88.4 ng·h/mL and 223.8 ng·h/mL and 39.5 ng·h/mL and 80.4 ng·h/mL and 62.9 ng·h/mL"}, {"measurement": "Cl/F", "setting": "[2]", "result": "209.3 L/h and 113.2 L/h and 44.7 L/h and 253.4 L/h and 124.4 L/h and 158.9 L/h"}, {"measurement": "Cmax", "setting": "[2]", "result": "29.6 ng/mL and 39.4 ng/mL and 63.6 ng/mL and 19.6 ng/mL and 46.7 ng/mL and 27.1 ng/mL"}, {"measurement": "Tmax", "setting": "[2]", "result": 1.0, "unit": "h"}, {"measurement": "Cl/F", "setting": "Table 10: Cohort A, 10 mg QD oral, Day 7, mean ± S.D.", "result": "151 ± 74", "unit": "L/h"}, {"measurement": "AUClast", "setting": "[3]", "result": "141.9 ng·h/mL and 462.4 ng·h/mL and 716.1 ng·h/mL and 369.3 ng·h/mL and 222.6 ng·h/mL and 92.5 ng·h/mL and 293.8 ng·h/mL"}, {"measurement": "Cl/F", "setting": "[3]", "result": "211.4 L/h and 64.9 L/h and 41.9 L/h and 81.2 L/h and 134.7 L/h and 324.4 L/h and 102.1 L/h"}, {"measurement": "Cmax", "setting": "[3]", "result": "60.8 ng/mL and 93.9 ng/mL and 209 ng/mL and 127 ng/mL and 153 ng/mL and 47.9 ng/mL and 70.6 ng/mL"}, {"measurement": "Tmax", "setting": "[3]", "result": "1.0 h (3×) and 2.0 h"}, {"measurement": "Cl/F", "setting": "Table 11: Cohort B, 30 mg QD oral, Day 1, mean ± S.D.", "result": "137 ± 99", "unit": "L/h"}, {"measurement": "AUClast", "setting": "[4]", "result": "113 ng·h/mL and 581 ng·h/mL and 286 ng·h/mL and 212 ng·h/mL and 61 ng·h/mL and 166 ng·h/mL"}, {"measurement": "Cl/F", "setting": "[4]", "result": "265.0 L/h and 51.7 L/h and 105.0 L/h and 141.2 L/h and 492.7 L/h and 181.3 L/h"}, {"measurement": "Cmax", "setting": "[4]", "result": "92.9 ng/mL and 236 ng/mL and 127 ng/mL and 186 ng/mL and 42.4 ng/mL and 37.9 ng/mL"}, {"measurement": "Tmax", "setting": "[4]", "result": 1, "unit": "h"}, {"measurement": "Cl/F", "setting": "Table 12: Cohort B, 30 mg QD oral, Day 7, mean ± S.D.", "result": "206 ± 176", "unit": "L/h"}, {"measurement": "AUClast", "setting": "[5]", "result": "421 ng·h/mL and 944 ng·h/mL and 471 ng·h/mL and 347 ng·h/mL and 110 ng·h/mL and 312 ng·h/mL and 124 ng·h/mL and 364 ng·h/mL"}, {"measurement": "Cl/F", "setting": "[5]", "result": "71.2 L/h and 31.8 L/h and 63.7 L/h and 86.4 L/h and 272.1 L/h and 96.3 L/h and 242.3 L/h and 82.5 L/h"}, {"measurement": "Cmax", "setting": "[5]", "result": "42 ng/mL and 95.5 ng/mL and 39.6 ng/mL and 32.3 ng/mL and 66.8 ng/mL and 20.3 ng/mL and 58.4 ng/mL"}, {"measurement": "Tmax", "setting": "[5]", "result": "1 h (2×) and 3 h (2×) and 1.5 h (3×) and 6 h"}, {"measurement": "Cl/F", "setting": "Table 13: Cohort B Fed, 30 mg oral, fed state, mean ± S.D.", "result": "123 ± 94", "unit": "L/h"}, {"measurement": "AUC24 h", "setting": "[6]", "result": "1629 ng·h/mL and 857 ng·h/mL and 925 ng·h/mL and 657 ng·h/mL and 1730 ng·h/mL and 1807 ng·h/mL"}, {"measurement": "Cl/F", "setting": "[6]", "result": "55.2 L/h and 105.1 L/h and 97.3 L/h and 137.0 L/h and 52.0 L/h and 49.8 L/h"}, {"measurement": "Cmax", "setting": "[6]", "result": "449 ng/mL and 350 ng/mL and 337 ng/mL and 92.4 ng/mL and 713 ng/mL and 456 ng/mL"}, {"measurement": "Tmax", "setting": "[6]", "result": "1.5 h (3×) and 8 h and 1 h"}, {"measurement": "Cl/F", "setting": "Table 14: Cohort C, 90 mg QD oral, Day 1, mean ± S.D.", "result": "83 ± 36", "unit": "L/h"}, {"measurement": "AUC24 h", "setting": "[7]", "result": "783 ng·h/mL and 604 ng·h/mL and 318 ng·h/mL and 516 ng·h/mL and 876 ng·h/mL and 1349 ng·h/mL"}, {"measurement": "Cl/F", "setting": "[7]", "result": "115.0 L/h and 149.1 L/h and 283.5 L/h and 174.4 L/h and 102.7 L/h and 66.7 L/h"}, {"measurement": "Cmax", "setting": "[7]", "result": "167 ng/mL and 230 ng/mL and 155 ng/mL and 114 ng/mL and 105 ng/mL and 361 ng/mL"}, {"measurement": "Tmax", "setting": "[7]", "result": "2 h and 1.5 h and 3 h"}, {"measurement": "Cl/F", "setting": "Table 15: Cohort C, 90 mg QD oral, Day 7, mean ± S.D.", "result": "149 ± 76", "unit": "L/h"}, {"measurement": "AUClast", "setting": "[8]", "result": "1004 ng·h/mL and 1255 ng·h/mL and 2727 ng·h/mL and 1349 ng·h/mL and 1580 ng·h/mL and 1422 ng·h/mL"}, {"measurement": "Cl/F", "setting": "[8]", "result": "89.6 L/h and 71.7 L/h and 33.0 L/h and 66.7 L/h and 57.0 L/h and 63.3 L/h"}, {"measurement": "Cmax", "setting": "[8]", "result": "234 ng/mL and 491 ng/mL and 685 ng/mL and 435 ng/mL and 434 ng/mL and 587 ng/mL"}, {"measurement": "Tmax", "setting": "[8]", "result": "2 h and 1 h (2×) and 1.5 h"}, {"measurement": "Cl/F", "setting": "Table 16: Cohort D (AD), 90 mg QD oral, Day 1, mean ± S.D.", "result": "64 ± 19", "unit": "L/h"}, {"measurement": "AUC24 h", "setting": "[9]", "result": "1067 ng·h/mL and 994 ng·h/mL and 856 ng·h/mL and 608 ng·h/mL and 689 ng·h/mL"}, {"measurement": "Cl/F", "setting": "[9]", "result": "144.6 L/h and 84.4 L/h and 90.5 L/h and 105.2 L/h and 148.0 L/h and 130.6 L/h"}]}]}
